# Values quoted from earlier work in US20040091555A1 (priority 2003, published 2004).
# Tested on: hepatocellular carcinoma
# Conditions: phase II clinical trials, patients with hepatocellular carcinoma
structure (smiles),measurement,value
CC(=O)O[C@H]1C(=O)[C@@]2(C)[C@H]([C@H](OC(=O)c3ccccc3)[C@]3(O)C[C@H](OC(=O)[C@H](O)[C@@H](NC(=O)c4ccccc4)c4ccccc4)C(C)=C1C3(C)C)[C@]1(OC(C)=O)CO[C@@H]1C[C@@H]2O [paclitaxel],efficacy on hepatocellular carcinoma,no significant efficacy on hepatocellular carcinoma
